Like-named read-outs stand apart in the source and are kept apart here.
Assay: Pharmacokinetics of single intraperitoneal injection in mice (LC-MS/MS, plasma and brain tissue)
Format: in vivo, male C57BL/6J mice
Details: i.p. 30 mg/kg; for MRT last: read-out: MRT(0-t); for MRT inf: read-out: MRT(0-∞)
Procedure: LC-MS/MS method was used to measure the concentration of LK-2 in plasma and brain tissue. LK-2 was dissolved in 0.9% saline to a concentration of 1 mg/ml. Blood samples were collected at 5 min, 15 min, 30 min, 1.0 h, 2.0 h, and 4.0 h time points into EDTA-coated tubes, then centrifuged at 2,000 g for 15 min to generate plasma samples. Brain tissue samples were collected after perfusion with saline through the left ventricle, and the brain tissue were diluted and homogenized with 5 volumes (w:v) of 0.9% NaCl. LC-MS/MS method for quantification of LK-2 in plasma and brain tissue samples was developed using LC-MS/MS-T_API4000 instrument. The general sample processing procedure is as follows. • 1) 30 μl plasma samples were divided, standard samples were calibrated with quality control, and single blank and double blank samples were added into 1.5 ml tubes, respectively. 40 μl brain tissue homogenate were added to each well of a 96-well plate, respectively, and standard samples were calibrated with quality control, single blank and double blank samples were aliquoted. • 2) Each sample (excluding double blanks) was mixed with 150 μl (plasma samples) or 200 μl (brain tissue homogenate) of internal standard solution [a 6-in-1 internal standard solution (100 ng/ml each of labetalol, tolbutamide, verapamil, dexamethasone, glipizide, and celecoxib dissolved in methanol) and 40 mM dibutyl acetic acid] to terminate the reaction (double blank samples were terminated with 40 mM dibutyl acetic acid in methanol). The mixture was then thoroughly vortexed for at least 15 s and centrifuged at 12000 g (plasma samples) or 3220 g (brain homogenate) at 4° C. for 15 minutes. • 3) 65 μl of the supernatant was evenly transferred into a 96-well plate and centrifuge at 3220 g, 4° C. for 5 minutes. All procedures were performed on wet ice. All the supernatant was directly injected for LC-MS/MS analysis. The chromatographic column was ACQUITY UPLC BEHC18 with 2.1×100 mm, 1.7 μm. The column temperature was at 40° C. and the flow rate was 0.4 mL/min. The mobile phase A was 0.001% NH3·H2O, 0.18 mM dibutylamine acetate aqueous solution, and mobile phase B was 10 mM N,O-dimethylhydroxylamine and 3 mM NH4OAc solution, acetonitrile/aqueous solution (v:v, 50:50). Standard curves were prepared by spiking compounds into control plasma and brain to determine drug concentrations. Pharmacokinetic parameters and average concentrations at each time point were calculated using DAS 2.0 software through non-compartmental analysis (NCA), as shown in Table 1.

[1] = male, C57BL/6J, mouse, ip, Brain tissue
[2] = male, C57BL/6J, mouse, ip, Plasma

CL (Brain tissue): 634.03 ± 53.28 mL/min/kg
V (Brain tissue): 124.755 ± 15.127 L/kg
CL (Plasma): 7.13 ± 0.317 mL/min/kg
V (Plasma): 0.356 ± 0.021 L/kg
Kp (male, C57BL/6J, mouse, brain/plasma, ip, read-out: Brain/plasma AUC ratio): 0.0127 ± 0.0006
AUC(0-inf) [1]: 793 ± 68 ng·h/mL
AUC(0-t) [1]: 523 ± 27.9 ng·h/mL
Cmax [1]: 236 ± 31.9 ng/mL
Tmax [1]: 30 min
half-life [1]: 138 ± 26.5 min
MRT last [1]: 106 ± 4.68 min
MRT inf [1]: 218 ± 36.7 min
AUC(0-inf) [2]: 70300 ± 3130 ng·h/mL
AUC(0-t) [2]: 69800 ± 3120 ng·h/mL
Cmax [2]: 92700 ± 8310 ng/mL
Tmax [2]: 30 min
half-life [2]: 34.6 ± 0.9 min
MRT last [2]: 41.6 ± 1.14 min
MRT inf [2]: 43.3 ± 1.08 min
SMILES: O=C(O)C1CN(C(c2ccccc2)P(=O)(O)O)CCN1 (stereo not shown) [LK-2]
